From ChEMBL document CHEMBL3632462, “Synthesis and evaluation of phenoxymethylbenzamide analogues as anti-trypanosomal agents” (Medchemcomm, 2015)

Assays:
Trypanosoma cruzi = test: Antitrypanosomal activity against […] of Trypanosoma cruzi Tulahuen C2C4 infected in rat L6 cells assessed as growth inhibition after 96 hrs by beta-galactosidase reporter gene assay; format: functional, organism-based; conditions: Tulahuen C2C4, L6, 96 h
[1] = Selectivity index, ratio of IC50 for rat L6 cells to IC50 for bloodstream form of Trypanosoma brucei rhodesiense STIB900; format: toxicity, cell-based; conditions: read-out: Ratio IC50
[2] = tested on: Trypanosoma brucei brucei; test: Antitrypanosomal activity against Trypanosoma brucei brucei infected in HEK293 cells assessed as growth inhibition after 72 hrs by Alamar Blue assay; format: functional, organism-based; conditions: HEK293, 72 h
Plasmodium falciparum = test: Antiparasitic activity against erythrocytic stage of Plasmodium falciparum NF54 assessed as growth inhibition after 48 hrs by [3H]-hypoxanthine incorporation assay; format: functional, organism-based
[3] = tested on: Trypanosoma brucei rhodesiense; test: Antitrypanosomal activity against bloodstream form of Trypanosoma brucei rhodesiense STIB900 assessed as growth inhibition after 70 hrs by resazurin dye-based fluorometric analysis; format: functional, organism-based; conditions: STIB900, 70 h
Leishmania donovani = test: Antiparasitic activity against amastigote form of Leishmania donovani MHOM/ET/67/L82 assessed as growth inhibition after 70 hrs by resazurin dye-based fluorometric analysis; format: functional, organism-based; conditions: MHOM/ET/67/L82, 70 h
L6 = test: Cytotoxicity against rat L6 cells after 70 hrs by resazurin dye-based fluorometric analysis; format: cell-based; conditions: L6, 70 h
[4] = Selectivity index, ratio of IC50 for HEK293 cells to IC50 for Trypanosoma brucei brucei infected in HEK293 cells; format: toxicity, cell-based; conditions: human, read-out: Ratio IC50

Row | IC50 [2] [µM] | Compound | selectivity ratio [4] | also measured
1 | > 50 | CCOc1ccc(OCc2ccc(C(=O)O)cc2)cc1 |  | 
2 | 10 | CCCc1ccc(OCc2ccc(C(=O)N3CCCCC3C)cc2)cc1 (stereo not given) | 8 | 
3 | > 50 | Cc1ccc(OCc2ccc(C(=O)N3CCC(C)CC3)cc2)cc1 |  | 
4 | > 50 | COc1ccc(OCc2ccc(C(=O)N3CCC(C)CC3)cc2)cc1 |  | 
5 | 14.8 | CCc1ccc(OCc2ccc(C(=O)N3CCOCC3)cc2)cc1 | 6 | 
6 | 20.6 | CCOc1ccc(NCc2ccc(C(=O)N3CCOCC3)cc2)cc1 | 4 | 
7 | > 50 | CCc1ccc(OCc2ccc(C(=O)N3CCN(C)CC3)cc2)cc1 |  | 
8 | > 50 | CCOc1ccc(OCc2ccc(C(=O)N3CCN(C)CC3)cc2)cc1 |  | 
9 | 18 | COc1ccc(OCc2ccc(C(=O)N(C)c3ccccc3)cc2)cc1 | 5 | 
10 | > 50 | CCOc1ccc(OCc2ccc(C(=O)NC(C)C)cc2)cc1 |  | 
11 | 1.66 | CCOc1ccc(OCCCCCC(=O)N2CCCCC2C)cc1 (stereo not given) | 50 | 

Continued, compound first:

Row | Compound | IC50 [2] [µM] | selectivity ratio [4] | also measured
12 | CCOc1ccc(OCc2ccc(C(=O)N3CCCC(C)C3)cc2)cc1 (stereo not given) | 1.15 | 36 | IC50 (Trypanosoma cruzi): 107 µM; selectivity ratio [1]: 190; IC50 (Plasmodium falciparum): 22.3 µM; IC50 [3]: 0.985 µM; IC50 (Leishmania donovani): 35.7 µM; IC50 (L6): 186 µM
13 | CCOc1ccc(OCc2ccc(C(=O)N3CCOCC3)cc2)cc1 | 4.2 | 20 | 
14 | CCCc1ccc(OCc2ccc(C(=O)N3CCCC(C)C3)cc2)cc1 (stereo not given) | > 50 |  | 
15 | Cc1ccc(OCc2ccc(C(=O)N3CCCCC3C)cc2)cc1 (stereo not given) | 9.2 | 9 | 
16 | CCc1ccc(OCc2ccc(C(=O)N3CCC(C)CC3)cc2)cc1 | > 50 |  | 
17 | CCOc1ccc(OCc2ccc(C(=O)N3CCC(C)CC3)cc2)cc1 | > 50 |  | 
18 | CCOc1ccc(NCc2ccc(C(=O)N3CCCCC3)cc2)cc1 | 2.9 | 29 | 
19 | COc1ccc(OCc2ccc(C(=O)N3CCN(C)CC3)cc2)cc1 | > 50 |  | 
20 | CCOc1ccc(OCCCCCC(=O)N2CCCCC2)cc1 | 7.35 | 5 | 
21 | CCOc1ccc(OCCCCCC(=O)N(C(C)C)C(C)C)cc1 | 2.03 | 41 | 
22 | O=C(Cn1ccnc1[N+](=O)[O-])NCc1ccccc1 [BENZNIDAZOLE] |  |  | IC50 (Trypanosoma cruzi): 2.33 µM
23 | CCCCCCCCCCCCCCCCOP(=O)([O-])OCC[N+](C)(C)C [MILTEFOSINE] |  |  | IC50 (Leishmania donovani): 0.572 µM
